# Data reported in patent US9067897B2, “2,4-Diaminoquinazolines for spinal muscular atrophy” (Families of Spinal Muscular Atrophy, priority 2004, dated 2015).
# pEC50: −log10 of the molar value. Structures can show the parent of a compound that is named as a salt.
# System: SMN2 promoter
# Assay: SMN2 promoter assay (β-lactamase reporter) in NSC-34 cells
# Format: cell-based, mouse
# Conditions: SMN2 promoter driving β-lactamase, 12 point dose curve, average of 3-6 dose curve experiments
# Description: All compounds were screened using an in vitro based SMN2 promoter assay. We used NSC-34 cells, a hybrid cell line between mouse spinal cord cells and mouse neuroblastoma cells. NSC-34 cells harbor an expression plasmid containing a 3.4 kb promoter fragment of the SMN2 gene driving β-lactamase expression.
# […] […] CCF2-AM diffuses across the plasma membrane and is converted into an active β-lactamase substrate by cytoplasmic esterase. […] The fold induction is proportional to the extent of β-lactamase produced and in turn proportional to SMN2 promoter activation for a given compound relative to vehicle (DMSO) control. […] These values are used to rank activities of the compounds and derive structure activity relationship.
pEC50 (Mus musculus),pEC50,Compound
> 6.00,,"Nc1nc(N)c2c(OCC3CC4CCC3C4)cccc2n1 (centres unmarked) [Example 151, 5-(Bicyclo[2.2.1]hept-2-ylmethoxy)quinazoline-2,4-diamine]"
> 6.00,,"Cc1cc(COc2cccc3nc(N)nc(N)c23)no1 [Example 53, 5-(5-Methylisoxazol-3-ylmethoxy)quinazoline-2,4-diamine]"
> 6.00,,"COCOCC(Oc1cccc2nc(N)nc(N)c12)c1ccc(F)cc1 (centres unmarked) [Example 153, 5-[1-(4-Fluorophenyl)-2-methoxymethoxyethoxy]quinazoline-2,4-diamine]"
> 6.00,,"COCCOc1cccc2nc(N)nc(N)c12 [Example 15, 5-(2-Methoxyethoxy)quinazoline-2,4-diamine]"
> 6.00,,"C[C@H](Oc1cccc2nc(N)nc(N)c12)c1cccc(Cl)c1 [Example 162, 5-[(S)-1-(3-Chlorophenyl)ethoxy]quinazolin-2,4-diamine]"
> 6.00,,"Cc1cc(OCc2cccc3nc(N)nc(N)c23)ccc1Cl [Example 141, 5-(4-Chloro-3-methylphenoxymethyl)quinazoline-2,4-diamine]"
> 6.00,,"Nc1nc(N)c2c(OCc3ccc4c(c3)OCO4)cccc2n1 [Example 54, 5-(Benzo[1,3]dioxol-5-ylmethoxy)quinazoline-2,4-diamine]"
> 6.00,,"Nc1nc(N)c2c(OCC3CCCC3)cccc2n1 [Example 18, 5-(Cyclopentylmethoxy)quinazoline-2,4-diamine]"
> 6.00,,"Nc1nc(N)c2c(COc3ccccc3Cl)cccc2n1 [Example 138, 5-(2-Chlorophenoxymethyl)quinazoline-2,4-diamine]"
> 6.00,,"Nc1nc(N)c2c(OCc3ccc(I)cc3)cccc2n1 [Example 4, 5-(4-Iodobenzyloxy)quinazoline-2,4-diamine]"
> 6.00,,"Nc1nc(N)c2c(OCc3ccco3)cccc2n1 [Example 21, 5-(Furan-2-ylmethoxy)quinazoline-2,4-diamine]"
5.30 to 6.00,,"Nc1nc(N)c2c(-c3ccsc3)cccc2n1 [Example 90, 5-Thiophen-3-yl-quinazoline-2,4-diamine]"
> 6.00,,"Nc1nc(N)c2c(OC3COc4ccc(Cl)cc43)cccc2n1 (centres unmarked) [Example 128, 5-(5-Chloro-2,3-dihydro-benzofuran-3-yloxy)-quinazoline-2,4-diamine]"
,5.30 to 6.00,"COc1cccc2c1OCC2Oc1cccc2nc(N)nc(N)c12 (centres unmarked) [Example 72, 5-(7-Methoxy-2,3-dihydrobenzofuran-3-yoloxy)-quinazoline-2.4-diamine]"
> 6.00,,"Nc1nc(N)c2c(OCC3CCNCC3)cccc2n1 [Example 116, 5-(Piperidin-4-ylmethoxy)-quinazoline-2,4-diamine hydrochloride]"
> 6.00,,"CC(Oc1cccc2nc(N)nc(N)c12)C1CCCCC1 (centres unmarked) [Example 126, 5-(1-Cyclohexyl-ethoxy)-quinazoline-2,4-diamine]"
> 6.00,,"CC(Oc1cccc2nc(N)nc(N)c12)c1ccc(Cl)c(Cl)c1 (centres unmarked) [Example 78, 5-[1-(3,4-Dichlorophenyl)-ethoxy]-quinazoline-2,4-diamine]"
> 6.00,,"CC(Oc1cccc2nc(N)nc(N)c12)c1ccccc1F (centres unmarked) [Example 103, 5-[1-(2-Fluorophenyl)-ethoxy]-quinazoline-2,4-diamine]"
> 6.00,,"Nc1nc(N)c2c(OCC(O)c3ccc(Cl)cc3)cccc2n1 (centres unmarked) [Example 160, 1-(4-Chlorophenyl)-2-(2,4-diaminoquinazolin-5-yloxy)ethanol]"
> 6.00,,"COc1ccc(COc2cccc3nc(N)nc(N)c23)cc1OC [Example 65, 5-(3,4-Dimethoxybenzyloxy)-quinazoline-2,4-diamine]"
> 6.00,,"CC(Oc1cccc2nc(N)nc(N)c12)c1cccc(I)c1 (centres unmarked) [Example 63, 5-[1-(3-Iodophenyl)-ethoxy]-quinazoline-2,4-diamine]"
> 6.00,,"Nc1nc(N)c2c(OCc3ccccn3)cccc2n1 [Example 36, 5-(Pyridin-2-ylmethoxy)Quinazoline-2,4-diamine]"
5.30 to 6.00,,"CC(CC(O)(c1ccc(Cl)cc1)c1ccc(Cl)cc1)Oc1cccc2nc(N)nc(N)c12 (centres unmarked) [Example 168, 1,1-Bis-(4-chlorophenyl)-3-(2,4-diaminoquinazolin-5-yloxy)butan-1-ol]"
> 6.00,,"COCOCC(Oc1cccc2nc(N)nc(N)c12)c1ccc2c(c1)OCO2 (centres unmarked) [Example 156, 5-(1-Benzo[1,3]dioxol-5-yl-2-methoxymethoxyethoxy)quinazoline-2,4-diamine]"
5.30 to 6.00,,"Nc1nc(N)c2c(S(=O)(=O)c3ccc(Cl)cc3)cccc2n1 [Example 31, 5-(4-Chlorobenzenesulfonyl)quinazoline-2,4-diamine]"
> 6.00,,"CC1(COc2cccc3nc(N)nc(N)c23)COC1 [Example 127, 5-(3-Methyl-oxetan-3-ylmethoxy)-quinazoline-2,4-diamine]"

pEC50 (Mus musculus),pEC50,Compound
> 6.00,,"Nc1nc(N)c2c(OC(CO)c3ccc(F)cc3)cccc2n1 (centres unmarked) [Example 154, 2-(2,4-Diaminoquinazolin-5-yloxy)-2-(4-fluorophenyl)ethanol hydrochloride]"
> 6.00,,"Nc1nc(N)c2c(OCC3CC=CCC3)cccc2n1 (centres unmarked) [Example 13, 5-(Cyclohex-3-enylmethoxy)quinazoline-2,4-diamine]"
> 6.00,,"COc1ccc(Cc2cccc3nc(N)nc(N)c23)cc1 [Example 26, 5-(4-Methoxybenzyl)Quinazoline-2,4-Diamine]"
> 6.00,,"Nc1nc(N)c2c(SCc3ccc(Cl)cc3)cccc2n1 [Example 29, 5-(4-Chlorobenzylsulfanyl)quinazoline-2,4-diamine]"
> 6.00,,"Nc1nc(N)c2c(OCc3cc(Cl)cc(Cl)c3)cccc2n1 [Example 106, 5-(3,5-Dichlorobenzyloxy)quinazoline-2,4-diamine]"
> 6.00,,"Nc1nc(N)c2c(OCc3cccnc3)cccc2n1 [Example 11, 5-(Pyridin-3-ylmethoxy)quinazoline-2,4-diamine]"
> 6.00,,"Nc1nc(N)c2c(OCC34CC5CC(CC(C5)C3)C4)cccc2n1 [Example 73, 5-(Adamantan-1-ylmethoxy)-quinazoline-2,4-diamine]"
> 6.00,,"Nc1nc(N)c2c(OCC3CCN(C(=O)c4ccccc4Cl)CC3)cccc2n1 [Example 133, (2-Chlorophenyl)-[4-(2,4-diamino-quinazolin-5-yloxymethyl)-piperidin-1-yl]-methanone]"
,> 6.00,"Nc1nc(N)c2c(OCC3CCN(C(=O)c4ccccc4I)CC3)cccc2n1 [Example 137, [4-(2,4-Diaminoquinzolin-5-yloxymethyl)piperidin-1-yl]-(2-iodophenyl)methanone]"
> 6.00,,"Cc1ccc(COc2cccc3nc(N)nc(N)c23)cc1 [Example 1, 5-(4-Methylbenzyloxy)quinazoline-2,4-diamine]"
> 6.00,,"CC(Oc1cccc2nc(N)nc(N)c12)c1ccccc1 (centres unmarked) [Example 12, 5-(1-Phenylethoxy)quinazoline-2,4-diamine]"
> 6.00,,"Nc1nc(N)c2c(O[C@H]3CCc4ccc(Cl)cc43)cccc2n1 [Example 149, 5-((S)-6-Chloroindan-1-yloxy)quinazoline-2,4-diamine]"
,> 6.00,"5-(3-Fluorobenzyloxy)quinazoline-2,4-diamine [Example 102]"
> 6.00,,"Nc1nc(N)c2c(OC3CCc4ccc(Cl)cc43)cccc2n1 (centres unmarked) [Example 61, 5-(6-Chloro-indan-1-yloxy)-quinazoline-2,4-diamine]"
> 6.00,,"Nc1nc(N)c2c(OCC3CCN(C(=O)c4ccc(Cl)cc4)CC3)cccc2n1 [Example 123, (4-Chlorophenyl)-[4-(2,4-diamino-quinazolin-5-yloxymethyl)-piperidin-1-yl]-methanone]"
> 6.00,,"Nc1nc(N)c2c(OCc3ccccc3)cccc2n1 [Example 35, 5-Benzyloxyquinazoline-2,4-diamine]"
> 6.00,,"CCC(Oc1cccc2nc(N)nc(N)c12)C1CCCCC1 (centres unmarked) [Example 129, 5-(1-Cyclohexylpropoxy)-quinazoline-2,4-diamine]"
5.30 to 6.00,,"Cc1cccc(S(=O)(=O)c2cccc3nc(N)nc(N)c23)c1 [Example 60, 5-(Toluene-3-sulfonyl)-quinazoline-2,4-diamine]"
> 6.00,,"CCCCCCCCOc1cccc2nc(N)nc(N)c12 [Example 38, 5-Octyloxyquinazoline-2,4-diamine]"
> 6.00,,"CC(C)(C)OC(=O)N1CCC(COc2cccc3nc(N)nc(N)c23)CC1 [Example 121, 4-(2,4-Diamino-quinazolin-5-yloxymethyl)-piperidin-1-carboxylic acid tert-butyl ester]"
> 6.00,,"Nc1nc(N)c2c(OCc3cccs3)cccc2n1 [Example 22, 5-(Thiophen-2-ylmethoxy)quinazoline-2,4-diamine]"
> 6.00,,"Nc1nc(N)c2c(OC3(c4cccc(Cl)c4)CC3)cccc2n1 [Example 146, 5-[1-(3-Chlorophenyl)cyclopropoxy]quinazoline-2,4-diamine]"
> 6.00,,"COC(COc1cccc2nc(N)nc(N)c12)c1ccc(Cl)cc1 (centres unmarked) [Example 165, 5-[2-(4-Chlorophenyl)-2-methoxyethoxy]quinazoline-2,4-diamine]"
> 6.00,,"C=CCOCCOc1cccc2nc(N)nc(N)c12 [Example 19, 5-(2-Allyloxyethoxy)quinazoline-2,4-diamine]"
,> 6.00,"Nc1nc(N)c2c(OCC3CCN(C(=O)c4cccc(I)c4)CC3)cccc2n1 [Example 135, [4-(2,4-Diaminoquinzolin-5-yloxymethyl)piperidin-1-yl]-(3-iodophenyl)methanone]"

Compound,pEC50 (Mus musculus),pEC50
"5-((1S,2R,5S)-6,6-Dimethylbieyclo[3.1.1]hept-2-ylmethoxy)quinazoline-2,4-diamine [Example 130]",,> 6.00
"CCCC(Oc1cccc2nc(N)nc(N)c12)C1CCCCC1 (centres unmarked) [Example 125, 5-(1-Cyclohexyl-butoxy)-quinazoline-2,4-diamine]",> 6.00,
